Results taken from PubChem BioAssay AID328 (DTP/NCI, 2004).
Where “and” joins values, the source holds several entries; their conditions need not be identical. Identical values can stand only once. Inconclusive results and toxic doses are left out. How the source made its calls: active means survival T/C of 150% or more; inactive means T/C below 125% in these data.

Test system: BDF1 mice, P388 leukemia ip, median survival T/C
Assay: NCI In Vivo Anticancer Drug Screen. Data for tumor model P388 Leukemia (intraperitoneal) in B6D2F1 (BDF1) mice
Conditions: endpoint: median survival time, higher = longer survival
Outline: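 Reported as T/C, where T is the survival measurement in dosed animals and C the same measurement in vehicle controls.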

[1] = dose: 50.0 mg/kg/injection, schedule: Q01DX009 (ip), vehicle: saline
[2] = dose: 100.0 mg/kg/injection, schedule: Q01DX009 (ip), vehicle: saline
[3] = dose: 200.0 mg/kg/injection, schedule: Q01DX009 (ip), vehicle: saline
[4] = dose: 200.0 mg/kg/injection, schedule: Q04DX003 (ip), vehicle: saline
[5] = dose: 100.0 mg/kg/injection, schedule: Q04DX003 (ip), vehicle: Klucel (hydroxypropylcellulose) (HPC)
[6] = dose: 400.0 mg/kg/injection, schedule: Q04DX003 (ip), vehicle: Klucel (hydroxypropylcellulose) (HPC)
[7] = dose: 100.0 mg/kg/injection, schedule: Q04DX003 (ip), vehicle: saline with Tween-80
[8] = dose: 200.0 mg/kg/injection, schedule: Q04DX003 (ip), vehicle: saline with Tween-80
[9] = dose: 400.0 mg/kg/injection, schedule: Q04DX003 (ip), vehicle: saline with Tween-80
[10] = dose: 25.0 mg/kg/injection, schedule: Q01DX009 (ip), vehicle: saline with Tween-80
[11] = dose: 50.0 mg/kg/injection, schedule: Q01DX009 (ip), vehicle: saline with Tween-80
[12] = dose: 50.0 mg/kg/injection, schedule: Q04DX003 (ip), vehicle: water
[13] = dose: 100.0 mg/kg/injection, schedule: Q01DX009 (ip), vehicle: saline with Tween-80
[14] = dose: 100.0 mg/kg/injection, schedule: Q04DX003 (ip), vehicle: water
[15] = dose: 400.0 mg/kg/injection, schedule: Q04DX003 (ip), vehicle: water
[16] = dose: 200.0 mg/kg/injection, schedule: Q01DX009 (ip), vehicle: saline with Tween-80
[17] = dose: 3.12 mg/kg/injection, schedule: Q01DX009 (ip), vehicle: water
[18] = dose: 6.25 mg/kg/injection, schedule: Q01DX009 (ip), vehicle: water
[19] = dose: 12.5 mg/kg/injection, schedule: Q01DX009 (ip), vehicle: water
[20] = dose: 25.0 mg/kg/injection, schedule: Q01DX009 (ip), vehicle: other
[21] = dose: 50.0 mg/kg/injection, schedule: Q01DX009 (ip), vehicle: other
[22] = dose: 100.0 mg/kg/injection, schedule: Q01DX009 (ip), vehicle: Klucel (hydroxypropylcellulose) (HPC)
[23] = dose: 100.0 mg/kg/injection, schedule: Q01DX009 (ip), vehicle: other
[24] = dose: 66.0 mg/kg/injection, schedule: Q01DX009 (ip), vehicle: saline with Tween-80
[25] = dose: 150.0 mg/kg/injection, schedule: Q01DX009 (ip), vehicle: saline with Tween-80
[26] = dose: 12.5 mg/kg/injection, schedule: Q01DX009 (ip), vehicle: saline with Tween-80

Measured: T/C

O=C(O)C1CC[N-]CC1.O=C(O)C1CC[N-]CC1.O=C(O)C1CC[N-]CC1.O=C(O)C1CC[N-]CC1.[Br][Rh][Br]
inactive: [1] 111 % of control | [2] 92 % of control and 93 % of control | [3] 93 % of control and 117 % of control | [4] 116 % of control | dose: 400.0 mg/kg/injection, schedule: Q04DX003 (ip), vehicle: saline 119 % of control

CCCCc1c(C(=O)OCC)oc(C(=O)OCC)c(CCCC)c1=O
inactive: dose: 12.5 mg/kg/injection, schedule: Q04DX003 (ip), vehicle: Klucel (hydroxypropylcellulose) (HPC) 99 % of control | dose: 25.0 mg/kg/injection, schedule: Q04DX003 (ip), vehicle: Klucel (hydroxypropylcellulose) (HPC) 91 % of control | dose: 50.0 mg/kg/injection, schedule: Q04DX003 (ip), vehicle: Klucel (hydroxypropylcellulose) (HPC) 115 % of control | [5] 91 % of control | [6] 102 % of control

NC(=S)c1ccc(N)nc1
inactive: [7] 103 % of control | [8] 110 % of control | [9] 110 % of control

CCOC(=O)c1cnn(C)c1N
inactive: [10] 93 % of control | dose: 25.0 mg/kg/injection, schedule: Q04DX003 (ip), vehicle: water 109 % of control | [11] 102 % of control | [12] 99 % of control | [13] 100 % of control | [14] 114 % of control | dose: 200.0 mg/kg/injection, schedule: Q04DX003 (ip), vehicle: water 91 % of control | [15] 116 % of control

CC(=O)C1CC2c3ccccc3C1c1ccccc12 (centres undefined)
inactive: [13] 95 % of control | [16] 87 % of control

CCCCc1ccc(C#N)nc1
inactive: [11] 98 % of control | [13] 106 % of control | [16] 108 % of control

CC1(C)c2ccccc2C(C)(O)c2ccccc21
inactive: [13] 100 % of control | [7] 100 % of control | [16] 100 % of control | [8] 96 % of control | dose: 400.0 mg/kg/injection, schedule: Q01DX009 (ip), vehicle: saline with Tween-80 112 % of control | [9] 96 % of control

Nc1nc(N)c2nc(SC34CC5CC(CC(C5)C3)C4)c(N)nc2n1
inactive: [7] 97 % of control | [8] 88 % of control | [9] 94 % of control

COc1cc2c[n+](C)c3c4cc(OC)c(OC)cc4ccc3c2cc1OC
active: [20] 153 % of control | dose: 34.0 mg/kg/injection, schedule: Q01DX009 (ip), vehicle: saline 159 % of control | [21] 174 % of control | [1] 188 % of control | dose: 52.0 mg/kg/injection, schedule: Q01DX009 (ip), vehicle: saline 150 % of control | dose: 80.0 mg/kg/injection, schedule: Q01DX009 (ip), vehicle: saline 165 % of control and 172 % of control | [22] 151 % of control | [23] 172 % of control | [2] 200 % of control | dose: 120.0 mg/kg/injection, schedule: Q01DX009 (ip), vehicle: saline 155 % of control and 168 % of control | dose: 180.0 mg/kg/injection, schedule: Q01DX009 (ip), vehicle: saline 159 % of control | [3] 183 % of control | dose: 240.0 mg/kg/injection, schedule: Q04DX003 (ip), vehicle: saline 150 % of control
inactive: [17] 98 % of control | [18] 112 % of control | [19] 118 % of control | dose: 25.0 mg/kg/injection, schedule: Q01DX009 (ip), vehicle: water 120 % of control | dose: 50.0 mg/kg/injection, schedule: Q01DX009 (ip), vehicle: water 100 % of control | [12] 103 % of control | dose: 100.0 mg/kg/injection, schedule: Q01DX009 (ip), vehicle: water 106 % of control | dose: 100.0 mg/kg/injection, schedule: Q04DX003 (ip), vehicle: saline 113 % of control | [14] 120 % of control | [4] 95 % of control | dose: 240.0 mg/kg/injection, schedule: Q01DX009 (ip), vehicle: saline 90 % of control | [15] 92 % of control | dose: 600.0 mg/kg/injection, schedule: Q04DX003 (ip), vehicle: saline 100 % of control

COc1cccc2c1C(=O)c1c(O)c3c(c(O)c1C2=O)C[C@@](O)(/C(C)=N/NC(=O)c1ccc(-c2ccccc2)cc1)C[C@@H]3OC1CC(N)C(O)C(C)O1 (some centres undefined)
active: [17] 224 % of control | [18] 157 % of control | [19] 169 % of control
inactive: dose: 0.78 mg/kg/injection, schedule: Q01DX009 (ip), vehicle: water 107 % of control | dose: 1.56 mg/kg/injection, schedule: Q01DX009 (ip), vehicle: water 122 % of control

CC1(CBr)Oc2ccccc2O1
inactive: [22] 104 % of control | [5] 100 % of control | dose: 200.0 mg/kg/injection, schedule: Q01DX009 (ip), vehicle: Klucel (hydroxypropylcellulose) (HPC) 108 % of control | dose: 200.0 mg/kg/injection, schedule: Q04DX003 (ip), vehicle: Klucel (hydroxypropylcellulose) (HPC) 95 % of control | dose: 400.0 mg/kg/injection, schedule: Q01DX009 (ip), vehicle: Klucel (hydroxypropylcellulose) (HPC) 116 % of control | [6] 108 % of control

CCCCCCCCCCCCCCCC(=O)N(CCC#N)CCC#N
inactive: [24] 91 % of control | [13] 91 % of control | [25] 108 % of control

CCOC(=O)c1ccc(N=CNc2ccc(C(=O)OCC)cc2)cc1
inactive: [26] 100 % of control | [10] 92 % of control | dose: 25.0 mg/kg/injection, schedule: Q04DX003 (ip), vehicle: saline with Tween-80 91 % of control | dose: 50.0 mg/kg/injection, schedule: Q04DX003 (ip), vehicle: saline with Tween-80 87 % of control

CC(C(Nc1ccc(C(=O)O)cc1)C(F)(F)C(F)(F)C(F)(F)F)[N+](=O)[O-] (centres undefined)
inactive: dose: 100.0 mg/kg/injection, schedule: Q01DX001 (ip), vehicle: saline with Tween-80 95 % of control | dose: 200.0 mg/kg/injection, schedule: Q01DX001 (ip), vehicle: saline with Tween-80 104 % of control | dose: 400.0 mg/kg/injection, schedule: Q01DX001 (ip), vehicle: saline with Tween-80 100 % of control

Nc1ncc(C2OC(CO)C(O)C2O)c(=O)[nH]1 (centres undefined)
active: dose: 128.0 mg/kg/injection, schedule: Q01DX005 (ip), vehicle: saline 150 % of control
inactive: dose: 16.0 mg/kg/injection, schedule: Q01DX005 (ip), vehicle: saline 123 % of control

CCCC(C(=O)OCCN1CCCC12CCCCC2)C1CCCC1 (centres undefined)
inactive: [26] 107 % of control | [10] 108 % of control | [11] 119 % of control

CCOC(=O)c1c(C)nc(C)c(C(=O)OCC)c1-c1cccnc1
inactive: dose: 12.5 mg/kg/injection, schedule: Q01DX009 (ip), vehicle: other 101 % of control | [20] 100 % of control | [21] 100 % of control | [23] 110 % of control | dose: 200.0 mg/kg/injection, schedule: Q01DX009 (ip), vehicle: other 112 % of control

Cc1c(Cl)cccc1NC(=O)/C=C/C(=O)O
inactive: dose: 44.0 mg/kg/injection, schedule: Q01DX009 (ip), vehicle: saline with Tween-80 95 % of control | [11] 122 % of control | [24] 100 % of control | [13] 100 % of control | [25] 104 % of control | [16] 109 % of control

CCCCN(CCCC)CCC(=O)c1ccc(OC)c2ccccc12
inactive: [11] 86 % of control

CCCCCCCCCCCCCCCCP(=O)(OCCOCCCCCC)OCCOCCCCCC
inactive: dose: 12.5 mg/kg/injection, schedule: Q01DX009 (ip), vehicle: alcohol 105 % of control | dose: 12.5 mg/kg/injection, schedule: Q01DX009 (ip), vehicle: saline 87 % of control | dose: 25.0 mg/kg/injection, schedule: Q01DX009 (ip), vehicle: alcohol 105 % of control | dose: 82.5 mg/kg/injection, schedule: Q01DX001 (ip), vehicle: saline 100 % of control | dose: 165.0 mg/kg/injection, schedule: Q01DX001 (ip), vehicle: saline 100 % of control
